Experimental data as given in patent US8969026B2, “Polymeric reverse micelles as selective extraction agents and related methods of MALDI-MS analysis” (University of Massachusetts, priority 2007, dated 2015).
No end group written: not given here.

Assays:
[1] = Liquid-liquid extraction of pI markers by reverse micelles of homopolymer 3 in toluene, fluorescence of the aqueous phase; format: physicochemical; details: for extraction efficiency: aqueous pH 6.0, reverse micelles present in the toluene phase
Excerpt: The polymeric reverse micelle-like nanoassemblies have carboxylate groups in their interiors; therefore, positively charged pI markers are expected to be extracted. Upon extraction, the concentrations of the pI markers left in the aqueous phase were quantitatively determined by fluorescence spectroscopy. Analysis of the organic phase was difficult because the fluorescence spectrum of the polymer is very broad in this phase, and in many cases overlaps with the signal from the pI markers. As an example of the data from the aqueous solution, the fluorescence spectra of pI marker 2, before (solid line) and after extraction (dashed line), are shown in FIG. 3. […] The concentration of the pI marker remaining in the aqueous phase can be quantified, and in this example, it is determined that 46% of pI marker 2 remains, which means that 54% of it is extracted into the organic phase when the aqueous solution pH is 1.9. It is not surprising that most of this compound is extracted under these conditions. This marker hag a pI value of 3.0, and at an aqueous solution pH of 1.9, most of this compound is positively charged and therefore interacts favorably with the negatively-charged interior of the polymeric reverse micelles.
(§1) A two-phase liquid-liquid extraction protocol that was previously developed was employed. […] The top (organic) layer was removed and the bottom (aqueous) layer was analyzed by fluorescence spectroscopy. […]
(§2) The amount of pI marker left in the bottom (aqueous) layer after extraction was determined on a Photon Technology International fluorometer (Ontario, Canada). Analysis of the organic phase was difficult because the fluorescence spectrum of the polymer in this phase was very broad, and in many cases overlapped with the signal from the pI markers. The excitation and emission wavelengths for each pI marker were chosen to maximize the fluorescence signal. […] For most of the pI markers, the fluorescence intensity was very low under more acidic conditions, making it difficult to collect data at these lower pHs. The fluorescence intensity of the aqueous phase after a given extraction was measured, and in each case the fluorescence intensity was used to determine the concentration of the pI marker remaining in the aqueous phase after the extraction. The amount of pI marker that was extracted by the reverse micelles was then calculated by subtracting the remaining aqueous phase concentration from the initial concentration (1×10^−6 M). The fluorescence measurements were repeated at least 3 times for each extracted sample and the average values are reported.

[2] = Control extraction of pI markers into toluene alone (no polymer); format: physicochemical; details: no reverse micelles / absence of polymer; pH independent
Experimental: Previously, it was shown for a series of peptides that charge complementarity exerts an important influence on the extraction process with these amphiphilic homopolymers. (See, M. Y. Combariza, E. N. Savariar, D. R. Vutukuri, S. Thayumanavan and R. W. Vachet, Anal. Chem. 2007, 79, 7124-7130.) Here, the importance of two other factors—hydrophobicity and aqueous solution pH—are assessed. Hydrophobicity might affect the extraction efficiency to some degree due to the toluene phase that surrounds the reverse micelles and the hydrocarbon functionality on the periphery of the reverse micelles. In order to investigate this effect, extractions of pI markers with different hydrophobicities were performed. As an example of the effect of hydrophobicity, the results from the extraction of two pI markers (4 and 7) at an aqueous phase pH of 6.0 are shown in FIG. 4. […]
as §1
as §2, with “The amount of pI marker that was extracted by the reverse micelles was then calculated by subtracting the remaining aqueous phase concentration from the initial concentration (1×10^−6 M). The fluorescence measurements were repeated at least 3 times for each extracted sample and the average values are reported.” left out

[3] = fluorescent pI markers, cited from earlier work
[4] = pH-dependent biphasic extraction of a peptide mixture with inverse micelles of polymer 1 in toluene, MALDI-MS ion abundance ratio; format: physicochemical; details: polymer 1 inverse micelles in toluene, K = Iorg/Iaq, [M+H]+ signal, [M+K]+ for spinorphin and β-amyloid, at least 4 replicates; for Ion abundance ratio (K ± sM) pH 4.0: aqueous pH 4.0; for Ion abundance ratio (K ± sM) pH 7.1: aqueous pH 7.1; for Ion abundance ratio (K ± sM) pH 9.0: aqueous pH 9.0
Excerpt: The net charge within the inverse micelle of 1 is negative, affording a selective extraction of positively-charged peptides. In a typical experiment, a toluene solution containing 1 was mixed with an aqueous solution containing a mixture of peptides. After vortexing this mixture, the organic layer was separated and analyzed using MALDI-MS. […] Because the aqueous solution was buffered at a pH of 7.1, peptides with pI values above 7.1 were expected to be sequestered into the interior of the inverse micelles, while peptides with pI values below 7.1 would be mostly excluded based on Coulombic repulsion.
The ion abundance ratio is related to the extraction capacity of the polymer, and can be defined as the ratio of the MALDI ion abundance of the peptide in the organic phase that contains the inverse micelles (Iorg) to the ion abundance of the peptide remaining in the aqueous phase (Iaq) (K=Iorg/Iaq). These experiments were performed with the hypothesis that the extraction would be based on electrostatic interaction between the polymer and the peptide. To test this premise further, two control experiments were carried out. […] Therefore, a two-phase extraction experiment was done in the absence of homopolymer 1, and no peptide extraction into the organic phase was observed. Second, peptide extractions using a polymer without the negatively-charged functionality were performed. Polymer 2 contains charge-neutral pentaethyleneglycol functionalities instead of the carboxylic acid moieties. […] These two results are consistent with the hypothesis that the extraction is based on electrostatics.
Without limitation to any one theory or mode of operation, the pH of the overall aqueous solution is also likely to dictate the pH of the hydrated interiors of the inverse micelle where the binding takes place. Accordingly, extractions at three different pHs: 4.0, 7.1, and 9.0 were carried out; the results of these experiments are listed in Table 1. […] The results from experiments at pH 7.1 and 9.0 further support this idea. It should be noted that when the experiment is carried out at pH 9.0, the peptide with a pI of 7.7 is extracted to some extent. Such a result could be attributed to errors associated with aqueous solution pH measuring or to errors in the peptide pI calculation. Nonetheless, the tunability is still significant and therefore is a very useful result.
A Bruker Reflex III time-of-flight mass spectrometer was used to perform MALDI-MS analysis. The mass spectrometer is equipped with a 337-nm nitrogen laser, a 1.0 m flight tube, and a stainless steel sample target. All mass spectra were acquired in reflectron mode using a voltage of 16 kV. All reported spectra represent an average of 70 shots acquired at 30% laser power. The accelerating voltage was set to 20 kV.
A typical biphasic extraction procedure involves mixing 200 μL of a toluene solution of homopolymer 1 or 2 (1×10^−4 M) with 1 mL of an aqueous solution of peptide(s) that was buffered to pH ˜7.0 with 50 mM Tris/TrisHCl. The mixture is vortexed for 10 to 120 minutes and centrifuged at 12000 rpm for 30-40 minutes to break the resulting emulsion and separate the organic and aqueous layers. The top (organic) layer is then recovered and dried to obtain a solid residue. The residue is redissolved into 10 μL of THF and sonicated for 10 seconds to promote solubilization. Finally, 20 μL of an α-CHCA matrix solution (0.16 Min 60:40:0.3% THF:H2O:TFA) are added to the sample for a final volume of 30 μL. For MALDI-MS analysis the samples are applied to the target using the dried-droplet method, where 1 μL of the sample/matrix mixture is spotted on a stainless-steel target, and the solvent is evaporated at room temperature. The residual aqueous phase (˜1 mL) after extraction is also examined by MALDI-MS. […]

[5] = as above; format: physicochemical; details: extraction at pH 7.1 followed by extraction at pH 5.5, organic phase
[6] = Extraction of a peptide mixture by positively charged imidazole polymer 4 at pH 4.5, MALDI-MS; format: physicochemical; details: each peptide 1.0×10^−6 M
Excerpt: Extraction of peptide mixture by positively charged polymer. Illustrating other embodiments of this invention, positively-charged polymers extract peptides with pI values below the aqueous solution pH. Without limitation, polymers with moieties comprising a positively charged nitrogenous group can be used with good effect. Representative of such embodiments, an imidazole-substituted polymer, 4, shown below, can be prepared using straight forward synthetic techniques of the sort described herein, and/or as are well-known to those skilled in the art.
At pH 4.5, kinetensin and angiotensin are positively-charged because the pH is below their pI values. […] FIG. 12C provides a mass spectrum of the aqueous phase after extraction at pH 4.5. The positively-charged peptides remain in the aqueous phase after extraction.

[7] = aqueous solution pH 1.9, polymer 3 reverse micelles in toluene

O=C(O)c1cc(Cl)ccc1NCCO [pI marker 2]
percentage extracted into the organic phase [1, 7]: 54%
percentage of pI marker remaining in the aqueous phase after extraction [1, 7]: 46%
percentage extracted into toluene alone [2]: about 6.6±0.6%
pI [3]: 3.0

O=C(CNc1ccccc1C(=O)O)NCCN1CCOCC1 [pI marker 4]
extraction efficiency [1]: 21.5±0.4%
percentage extracted into toluene alone [2]: 8.4±0.6%
pI [3]: 5.1

CN(C)CCCNC(=O)c1cc(Cl)ccc1O [pI marker 7]
extraction efficiency [1]: 70±1.6%
percentage extracted into toluene alone [2]: 5.9±0.3%
Pka1 [3]: 6.80
pI [3]: 8.1
Pka ([3]; second pKa column): 9.30

EDVGSNKGAIIGLM (listed as Homo sapiens) [β-Amyloid, human peptide purchased from American Peptide Company]
Ion abundance ratio (K ± sM) pH 4.0 [4]: 17 ± 6
Ion abundance ratio (K ± sM) pH 7.1 [4]: 0.4 ± 0.2
Ion abundance ratio (K ± sM) pH 9.0 [4]: 0.10 ± 0.07
extraction in the second step of the sequential extraction [5]: a small amount of β-amyloid was extracted

LVVYPWT [Spinorphin, LVVYPWT]
Ion abundance ratio (K ± sM) pH 4.0 [4]: 36 ± 12
Ion abundance ratio (K ± sM) pH 7.1 [4]: 2.0 ± 1.0
Ion abundance ratio (K ± sM) pH 9.0 [4]: 1.0 ± 0.5
extraction in the second step of the sequential extraction [5]: extracted into the organic layer

SSEVAGEGDGDSMGHEDLY (listed as Homo sapiens) [Preproenkephalin, human peptide purchased from American Peptide Company]
Ion abundance ratio (K ± sM) pH 4.0 [4]: 2.2 ± 0.9
Ion abundance ratio (K ± sM) pH 7.1 [4]: 0.4 ± 0.1
Ion abundance ratio (K ± sM) pH 9.0 [4]: 0.12 ± 0.04
phase distribution after extraction [6]: a small percentage of the preproenkephalin is believed to remain in the aqueous phase
